# According to the Deep4Chem optical property database:
# Assay: photoluminescence quantum yield (fraction); solvent given as SMILES
# [1] = in O=P(c1ccccc1)(c1ccccc1)c1ccccc1Oc1ccccc1P(=O)(c1ccccc1)c1ccccc1
structure (smiles),measurement,setting,value
Cc1ccc(-n2c(-c3ccc(N(c4ccc(-c5ccc(N(c6ccc(-c7nc8c9ccccc9c9ccccc9c8n7-c7ccc(C)cc7)cc6)c6ccc(-c7nc8c9ccccc9c9ccccc9c8n7-c7ccc(C)cc7)cc6)cc5)cc4)c4ccc(-c5nc6c7ccccc7c7ccccc7c6n5-c5ccc(C)cc5)cc4)cc3)nc3c4ccccc4c4ccccc4c32)cc1,photoluminescence quantum yield,in ClCCl,0.282
COc1ccc(/C=C/C2=CC(/C=C/c3ccc(OC)cc3)=[O+][B-](OC(C)=O)(OC(C)=O)O2)cc1,photoluminescence quantum yield,in C1CCOC1,0.95
same,photoluminescence quantum yield,in CC#N,0.85
same,photoluminescence quantum yield,in CC(C)=O,0.88
same,photoluminescence quantum yield,in CS(C)=O,0.83
same,photoluminescence quantum yield,in Cc1ccccc1,0.98
same,photoluminescence quantum yield,in ClC(Cl)Cl,0.91
same,photoluminescence quantum yield,in ClCCl,0.92
O=C1/C(=C2\Sc3ccccc3C2=O)Sc2ccccc21,photoluminescence quantum yield,in C1COCCO1,0.54
same,photoluminescence quantum yield,in CN(C)C=O,0.353
same,photoluminescence quantum yield,in CO,0.035
same,photoluminescence quantum yield,in CS(C)=O,0.013
same,photoluminescence quantum yield,in c1ccccc1,0.72
[NH3+]c1cc([NH3+])cc(-c2[nH+]c3ccccc3s2)c1,photoluminescence quantum yield,in O,0.008
COc1cccc(-[c+]2c3ccccc3oc3ccccc32)c1,photoluminescence quantum yield,in CC#N,0.00066
CC(C)(C)c1cc2c(c(C(C)(C)C)c1)O[B-](F)(F)[n+]1c-2nc(-c2ccccc2)c2ccccc21,photoluminescence quantum yield,in Cc1ccccc1,0.002
COc1ccc(C#Cc2ccc(C#Cc3ccc(P(=O)(c4ccc(C#Cc5ccc(C#Cc6ccc(OC)cc6)cc5)cc4)c4ccc(C#Cc5ccc(C#Cc6ccc(OC)cc6)cc5)cc4)cc3)cc2)cc1,photoluminescence quantum yield,in C1CCCCC1,0.78
same,photoluminescence quantum yield,in C1COCCO1,0.89
same,photoluminescence quantum yield,in CC#N,0.79
same,photoluminescence quantum yield,in CCO,0.86
same,photoluminescence quantum yield,in CS(C)=O,0.71
same,photoluminescence quantum yield,in ClC(Cl)Cl,0.77
same,photoluminescence quantum yield,in ClCCl,0.73
COc1nc(Nc2ccc3c4cccc5cccc(c6cccc2c63)c54)nc(OC)n1,photoluminescence quantum yield,in C1COCCO1,0.51
same,photoluminescence quantum yield,in CC#N,0.43
same,photoluminescence quantum yield,in CCCCOCCCC,0.46
same,photoluminescence quantum yield,in CCOC(C)=O,0.47
Cc1cc(-c2ccccc2C)cc(C)[o+]1,photoluminescence quantum yield,in CC#N,0.1
same,photoluminescence quantum yield,in ClCCl,0.05
O=c1c2ccccc2sc2ccc(-n3c4ccccc4c4ccccc43)cc12,photoluminescence quantum yield,[1],0.512
CC(C)(C)c1ccc2c(c1)c1cc(C(C)(C)C)ccc1n2-c1ccc(-c2nc(-c3ccc(P(=O)(c4ccccc4)c4ccccc4)cc3)nc(-c3ccc(P(=O)(c4ccccc4)c4ccccc4)cc3)n2)cc1,photoluminescence quantum yield,[1],0.96
Oc1ccc(-c2cccs2)cc1-c1nc2ccccc2s1,photoluminescence quantum yield,in CCO,0.0473
same,photoluminescence quantum yield,in ClCCl,0.0242
O=c1[nH]c2[n+](c3ccccc13)[B-](F)(F)Oc1ccccc1-2,photoluminescence quantum yield,in CC#N,0.201
same,photoluminescence quantum yield,in Cc1ccccc1,0.24
CC(C)(C)c1ccc2c(c1)c1cc(C(C)(C)C)ccc1n2-c1ccc(N(c2ccc(-c3ccc(-c4ccc(N(c5ccc(-n6c7ccc(C(C)(C)C)cc7c7cc(C(C)(C)C)ccc76)cc5)c5ccc(-n6c7ccc(C(C)(C)C)cc7c7cc(C(C)(C)C)ccc76)cc5)cc4)c4nsnc34)cc2)c2ccc(-n3c4ccc(C(C)(C)C)cc4c4cc(C(C)(C)C)ccc43)cc2)cc1,photoluminescence quantum yield,in ClCCl,0.05
CN(C)CCCN1c2ccccc2CCc2ccccc21,photoluminescence quantum yield,in CC#N,0.012
same,photoluminescence quantum yield,in CO,0.01
same,photoluminescence quantum yield,in O,0.021
CCCCC(CC)CN1C(=O)c2cccc3c(C#Cc4ccc(N(c5ccccc5)c5ccccc5)cc4)ccc(c23)C1=O (stereo not given),photoluminescence quantum yield,in C1CCCCC1,0.66
same,photoluminescence quantum yield,in C1CCOC1,0.62
same,photoluminescence quantum yield,in CC#N,0.026
same,photoluminescence quantum yield,in Cc1ccccc1,0.89
same,photoluminescence quantum yield,in ClC(Cl)Cl,0.51
CC1(C)c2ccccc2N(c2ccccc2)c2ccc(-c3ccc(-c4ccc5c(c4)C(C)(C)c4ccccc4N5c4ccccc4)c4nsnc34)cc21,photoluminescence quantum yield,in c1ccc2c(c1)c1ccccc1n2-c1ccc(-c2ccc(-n3c4ccccc4c4ccccc43)cc2)cc1,0.92
CCCCN(CCCC)c1ccc(/C=C/c2ccc3nc(-c4ccccc4)c(/C=C/c4ccc(N(C)C)cc4)nc3c2)cc1,photoluminescence quantum yield,in C1COCCO1,0.17
CC1=c2cc3c(C)c4n(c3cc2=[N+]2C1=Cc1c3ccccc3c(C)n1[B-]2(F)F)[B-](F)(F)[N+]1=C(C)c2ccccc2C1=C4,photoluminescence quantum yield,in ClC(Cl)Cl,0.36
CCC12C(=C3C(=C4c5ccc(-c6ccccc6)cc5S(=O)(=O)C41CC)C(F)(F)C(F)(F)C3(F)F)c1ccc(-c3ccccc3)cc1S2(=O)=O (stereo not given),photoluminescence quantum yield,in C1COCCO1,0.87
CN(C)c1ccc(/C=C/c2ccncn2)cc1,photoluminescence quantum yield,in ClCCl,0.15
O=c1c2cc(F)c(O)cc2oc2cc(O)c(F)cc12,photoluminescence quantum yield,in CCO,0.26
CCCCCCC(CCCCCC)n1c(=O)c2c3ccc4cccc5c6cccc7ccc(c2c1=O)c(c76)c3c45,photoluminescence quantum yield,in C1CCCCC1,0.32
same,photoluminescence quantum yield,in CC#N,0.33
same,photoluminescence quantum yield,in CC(C)=O,0.27
same,photoluminescence quantum yield,in CCCCCC,0.32
same,photoluminescence quantum yield,in CCO,0.3
same,photoluminescence quantum yield,in CCOCC,0.34
same,photoluminescence quantum yield,in CS(C)=O,0.44
same,photoluminescence quantum yield,in Cc1ccccc1,0.42
same,photoluminescence quantum yield,in ClC(Cl)(Cl)Cl,0.37
same,photoluminescence quantum yield,in ClC(Cl)Cl,0.35
C1=Cc2ccccc2C(=Cc2ccc(-c3cc(-c4ccc(C=C5c6ccccc6C=Cc6ccccc65)cc4)c(-c4ccc(C=C5c6ccccc6C=Cc6ccccc65)cc4)cc3-c3ccc(C=C4c5ccccc5C=Cc5ccccc54)cc3)cc2)c2ccccc21,photoluminescence quantum yield,in C1CCOC1,0.0016
CCOC(=O)c1cc(C(=O)OCC)c2cc(O)ccc2n1,photoluminescence quantum yield,in CCO,0.16
Cc1cc(C)c(C2=C3C=C(/C=C/C(=O)OC(C)(C)C)C=[N+]3[B-](F)(F)n3cc(/C=C/C(=O)OC(C)(C)C)cc32)c(C)c1,photoluminescence quantum yield,in ClCCl,0.4
CCn1c(-c2ccc(-c3ccc(-c4ccc(-c5n(CC)c6ccccc6[n+]5CC)cc4)c(C)c3)cc2)[n+](CC)c2ccccc21,photoluminescence quantum yield,in O,0.71
CC1(C)c2ccccc2N(c2ccc3c(ccc4nc5ccc6cc(N7c8ccccc8C(C)(C)c8ccccc87)ccc6c5nc43)c2)c2ccccc21,photoluminescence quantum yield,in C1CCCCC1,0.16
same,photoluminescence quantum yield,in C1CCOC1,0.07
same,photoluminescence quantum yield,in Cc1ccccc1,0.11
same,photoluminescence quantum yield,in ClCCl,0.05
C(#Cc1ncnc2ccccc12)c1ccc(N(c2ccccc2)c2ccccc2)cc1,photoluminescence quantum yield,in ClCCl,0.03
CC/[NH+]=c1\cc2oc3cc(NCCNC(=O)C(NC(=O)OC(C)(C)C)C(C)C)c4ccccc4c3nc-2cc1C (stereo not given),photoluminescence quantum yield,in CCO,0.35
same,photoluminescence quantum yield,in O,0.48
O=P1(c2ccccc2)C2=C(c3ccccc31)[Si](c1ccccc1)(c1ccccc1)c1cc(N(c3ccccc3)c3ccccc3)ccc12 (stereo not given),photoluminescence quantum yield,in CC#N,0.52
same,photoluminescence quantum yield,in CO,0.17
same,photoluminescence quantum yield,in Cc1ccccc1,0.86
O=C1c2ccccc2-c2c(-c3cc(Br)ccc3O)[nH]c(=O)n21,photoluminescence quantum yield,in CC#N,0.49
same,photoluminescence quantum yield,in CO,0.32
same,photoluminescence quantum yield,in ClCCl,0.61
CCn1c2ccccc2oc2c(C#N)c3oc4ccccc4oc3c(C#N)c21,photoluminescence quantum yield,in ClC(Cl)Cl,0.34
CN(C)c1cc(-c2ccc(C#Cc3ccncc3)cc2)cc2ccccc12,photoluminescence quantum yield,in ClCCl,0.83
CC(C)[Si](C#Cc1ccc(C#C[Si](C(C)C)(C(C)C)C(C)C)c2nc3c(nc12)Cc1ccccc1-3)(C(C)C)C(C)C,photoluminescence quantum yield,in CCCCCC,0.04
COc1ccc(-c2ccc(-c3ccccc3)cc2)cc1,photoluminescence quantum yield,in C1CCCCC1,0.7
CCN(CC)c1ccc(C=Cc2nc3nc4ccccc4nc3s2)cc1,photoluminescence quantum yield,in CCO,0.36
CCOC(=O)c1c2c3c(ccc([N+](=O)[O-])c3c3cc4c(cc13)[Si](C)(C)O[Si]4(C)C)N(C)C2=O,photoluminescence quantum yield,in CC#N,0.3
C[N+]1=C(/C=C/C=C2/N(CCCc3ccccc3)c3ccccc3C2(C)C)C(C)(C)c2ccccc21,photoluminescence quantum yield,in CS(C)=O,0.08
O=S(=O)(c1ccc(N(c2ccccc2)c2ccccc2)cc1)c1ccc(S(=O)(=O)c2ccc(N(c3ccccc3)c3ccccc3)cc2)cc1,photoluminescence quantum yield,in Cc1ccccc1,0.64
O=C1c2ccccc2-c2cccc(O)c21,photoluminescence quantum yield,in C1CCCCC1,0.0129
same,photoluminescence quantum yield,in C1COCCO1,0.0284
same,photoluminescence quantum yield,in CC#N,0.053
same,photoluminescence quantum yield,in CC(C)O,0.024
same,photoluminescence quantum yield,in CCCCO,0.022
same,photoluminescence quantum yield,in CCCO,0.021
same,photoluminescence quantum yield,in CCO,0.0197
same,photoluminescence quantum yield,in CCOC(C)=O,0.0383
same,photoluminescence quantum yield,in CCOCC,0.022
same,photoluminescence quantum yield,in CO,0.012
CCOC(=O)CN(CC(=O)OCC)c1ccc(-c2cc(-c3ccccn3)nc(-c3ccccn3)c2)cc1,photoluminescence quantum yield,in CC#N,0.37
same,photoluminescence quantum yield,in CCOC(C)=O,0.48
same,photoluminescence quantum yield,in CN(C)C=O,0.31
same,photoluminescence quantum yield,in CS(C)=O,0.34
same,photoluminescence quantum yield,in c1ccccc1,0.5
COc1ccc(C2=N/C(=C\c3ccccc3)C(=O)N2)cc1OC,photoluminescence quantum yield,in C1COCCO1,0.034
COC(=O)c1ccc(/C=C2\C=C(c3ccc([N+](=O)[O-])cc3)OC2=O)cc1,photoluminescence quantum yield,in C1COCCO1,0.002
Cc1cc2ccccc2c2c1c1ccccc1n2-c1ncccn1,photoluminescence quantum yield,in ClCCl,0
CN(C)c1ccc2nc(-c3ccc(C(=O)Nc4ccccc4)cc3)sc2c1,photoluminescence quantum yield,in C1CCCCC1,0.89
same,photoluminescence quantum yield,in CC#N,0.92
same,photoluminescence quantum yield,in CC(C)O,0.91
same,photoluminescence quantum yield,in CO,0.76
same,photoluminescence quantum yield,in CS(C)=O,0.99
same,photoluminescence quantum yield,in ClC(Cl)Cl,0.98
same,photoluminescence quantum yield,in c1ccccc1,0.92
COC(=O)/C(C#N)=c1\s/c(=c2/s/c(=C(/C#N)C(=O)OC)c3cc(-c4ccc(C(F)(F)F)cc4)sc23)c2sc(-c3ccc(C(F)(F)F)cc3)cc12,photoluminescence quantum yield,in Cc1ccccc1,0.212
C=CCOc1nnc(OCCC(F)(F)C(F)(F)C(F)(F)C(F)(F)C(F)(F)C(F)(F)C(F)(F)C(F)(F)F)nn1,photoluminescence quantum yield,in ClCCl,0.16
same,photoluminescence quantum yield,in OCC(F)(F)F,0.02
Fc1ccc(C#Cc2c(C#Cc3ccc(F)cc3)c(C#Cc3ccc(F)cc3)c(C#Cc3ccc(F)cc3)c(C#Cc3ccc(F)cc3)c2C#Cc2ccc(F)cc2)cc1,photoluminescence quantum yield,in ClCCl,0.25
Oc1ccccc1-c1nc(-c2ccccc2)c2ccccn12,photoluminescence quantum yield,in ClCCl,0.144
C(#Cc1ccccc1)c1ccccc1,photoluminescence quantum yield,in CO,0.0015
same,photoluminescence quantum yield,in ClC(Cl)Cl,0.003
same,photoluminescence quantum yield,in ClCCl,0.003
O=C1CCCC2=C1CC1=C(CCCC1=O)N2NC(=O)c1ccccc1,photoluminescence quantum yield,in C1CCOC1,0.33
same,photoluminescence quantum yield,in CC#N,0.46
same,photoluminescence quantum yield,in CC(C)=O,0.42
same,photoluminescence quantum yield,in CCCCCO,0.42
same,photoluminescence quantum yield,in CO,0.34
same,photoluminescence quantum yield,in ClC(Cl)Cl,0.62
same,photoluminescence quantum yield,in ClCCl,0.31
